# How the values were obtained:
# [1] = Stability in human plasma by cellulose acetate electrophoresis; format: in vitro ADME; conditions: human plasma at 37° C. for 24 hrs; one preliminary CAE experiment
# Source text: Two forms of the free amine SHAL, (DvLPBaPPP)2LLA, and the hexa-arginine analog, (DvLPBaPPP)2LArg6AcLLA, were synthesized in multi-milligram amounts and purified by high performance liquid chromatography (HPLC). A biotin was attached to the ε-amino group of the terminal amine (A) on both (DvLPBaPPP)2LLA and (DvLPBaPPP)2LArg6AcLLA to produce biotinylated forms for use in cell and protein binding experiments. 1,4,7,10-tetraazacyclododecane-1,4,7,10-tetraacetic acid (DOTA) was attached to both (DvLPBaPPP)2LLA and (DvLPBaPPP)2LArg6AcLLA at the same site to enable the SHALs to be labeled with ^111In. The DOTA SHAL (DvLPBaPPP)2LLDo (FIG. 25A) and the hexa-arginine SHAL analog (DvLPBaPPP)2LArg6AcLLDo (FIG. 25B) were labeled with ^111In at high efficiency (>90%) with specific activities ranging from 70-85 μCi/μg SHAL. […] D-isomers of arginine incorporated during the synthesis of the hexa-arginine sequence in (DvLPBaPPP)2LArg6AcLLDo were used to minimize the proteolytic susceptibility of the peptide.
# Raji xenografts [2] = assay: Electron microscopy of Raji xenografts after SHAL treatment; format: in vivo, mice; conditions: after 100 ng of biotinylated SHAL
# Experimental: Raji xenografts (53-132 mm^3) were harvested for EM from mice, untreated (control) and 2, 4 or 24 h after 100 ng of biotinylated SHAL.
# Raji xenografts [3] = assay: Efficacy in mice with Raji xenografts; format: in vivo, athymic Balb/c nu/nu mice
# Source text: Seven- to nine-week old female, athymic Balb/c nu/nu mice (Harlan Sprague Dawley, Inc., Frederick, Md.) were maintained according to University of California animal care guidelines under pathogen-free conditions and on a normal ad libitum diet. Raji or Jurkat's cells harvested in log phase and having >95% viability were implanted (6×10^6 cells) subcutaneously in the lower abdomen 3-4 days after the mice were irradiated (400 cGy) to suppress xenograft rejection. When xenografts reached 20-500 mm3 by caliper measurement, the mice were sorted by xenograft volume into 4 groups: SHAL-treated mice with Raji xenografts, SHAL-treated mice with Jurkat's xenografts, untreated mice with Raji xenografts or untreated mice with Jurkat's xenografts. Each mouse was injected with 100 μl of PBS or 100 ng DOTA-chelated tridentate SHAL i.p. on days 0, 7 and 14. Xenograft volume and survival were monitored for ≥84 days. The mice were also weighed 2-3 times each week for 4 weeks then weekly. Blood counts were measured prior to each SHAL or PBS dose and weekly for 4 weeks after the final dose using a Z Series Coulter Counter (Beckman Coulter Inc., Hialeah, Fla.) and a phase contrast microscope (Zeiss, Jena, Germany).
# Xenograft volumes were calculated by the formula for hemiellipsoids (DeNardo et al. (1997) Clin. Cancer Res. 3: 71-79). […] If a xenograft became >2000 mm3, the mouse was euthanized in accordance with University of California animal care guidelines and scored as a disease-related death.
# Initial analysis compared response rates by exact tests and survival times by log-rank tests for untreated Raji and Jurkat's mice and found no significant differences, so these groups were pooled for subsequent analysis. Response rates for treated Raji, treated Jurkat's and untreated mice were compared by x^2 and exact tests. Survival times were censored at 84 days for mice who had not died or been euthanized because of tumor growth before that time. Times were summarized descriptively by Kaplan-Meier curves and median survival and 95% confidence limits were obtained by the product-limit estimate. The two treated groups were compared to the untreated using a log-rank test for homogeneity across groups, followed by a proportional hazards model to estimate the effect of treatment compared to no treatment. Analyses were carried out using SAS/SAT® software (SAS Institute, Inc. SAS/STAT Version 9.0. 2004. Cary, N.C.: SAS Institute). All tests were two-sided at level 0.05.
degradation in human plasma [1],Structure (SMILES),electron microscopy findings in xenograft cells (Raji xenografts [2]),electron microscopy findings in xenograft cells (Raji xenografts [2]; listed as SHAL),"ORR (overall response rate) (Raji xenografts [3]; 100 ng DOTA-chelated tridentate SHAL i.p. days 0, 7 and 14)","Cure (Raji xenografts [3]; 100 ng DOTA-chelated tridentate SHAL i.p. days 0, 7 and 14, censored at 84 days)",overall survival (FIG. 31) (Raji xenografts [3]; 100 ng SHAL i.p. once weekly for 3 consecutive weeks),"median survival time (Raji xenografts [3]; 100 ng SHAL i.p. weekly x3, censored at 84 days)",xenograft response in one mouse (FIG. 30) (Raji xenografts [3]; by three weeks after the initial 100 ng dose i.p.),persistence of cures (Raji xenografts [3]; cures at 84 days),"reduction in hazard of death (Raji xenografts [3]; treated Raji mice compared to untreated and treated Jurkat's mice, proportional hazards model)",time at which regression began after initial SHAL treatment (Raji xenografts [3]; treated Raji xenografts),time to complete remission after initial SHAL treatment (Raji xenografts [3]; treated Raji xenografts)
no evidence of degradation,CC(=O)NC(CCCNC(=N)N)C(=O)NC(CCCNC(=N)N)C(=O)NC(CCCNC(=N)N)C(=O)NC(CCCNC(=N)N)C(=O)NC(CCCNC(=N)N)C(=O)NC(CCCNC(=N)N)C(=O)NCCCCC(NC(=O)C(CCCCNC(=O)COCCOCCNC(=O)COCCOCCNC(=O)COCCOCCNC(=O)C(CCCCNC(=O)COCCOCCNC(=O)c1ccc(NC(=O)C(CCCNC(=N)N)NC(=O)c2ccccc2)cc1)NC(=O)C(NS(=O)(=O)c1ccc(N=Nc2ccc(N(C)C)cc2)cc1)C(C)C)NC(=O)COCCOCCNC(=O)COCCOCCNC(=O)COCCOCCNC(=O)C(CCCCNC(=O)COCCOCCNC(=O)c1ccc(NC(=O)C(CCCNC(=N)N)NC(=O)c2ccccc2)cc1)NC(=O)C(NS(=O)(=O)c1ccc(N=Nc2ccc(N(C)C)cc2)cc1)C(C)C)C(=O)NC(CCCCNC(=O)CN1CCN(CC(=O)O)CCN(CC(=O)O)CCN(CC(=O)O)CC1)C(=O)O (stereo not drawn) [(DvLPBaPPP)2LArg6AcLLDo],–,–,–,–,–,–,–,–,–,–,–
–,CC(C)C(NS(=O)(=O)c1ccc(N=Nc2ccc(N(C)C)cc2)cc1)C(=O)NCCOCCOCC(=O)NC(CCCCNC(=O)C(CCCCNC(=O)CC(=O)Nc1ccccc1Oc1ncc(C(F)(F)F)cc1Cl)NC(=O)COCCOCCNC(=O)c1ccc(N2CCN(Cc3ccc(Cl)cc3)CC2)c([N+](=O)[O-])c1)C(=O)NCCOCCOCC(=O)NC(CCCCNC(=O)CN1CCN(CC(=O)O)CCN(CC(=O)O)CCN(CC(=O)O)CC1)C(=O)O (stereo not drawn) [tridentate SHAL],highly condensed nuclear chromatin and fragmented organelles,condensed and fragmented chromatin and loss of cytoplasmic structures consistent with autophagic death,77%,69%,longest survival,not estimable,completely regressed,persisted over a 210-day observation time,85%,~7 days,~30 days
